Data published in patent publication US20070049620A1, “Cyclic tertiary amine compound” (SANKYO COMPANY, LIMITED, priority 2003, published 2007).

Row | Compound | melting point [°C]
1 | CNC(=O)c1ccc([C@@H]2C[C@H]3C=C(c4c[nH]c(-c5ccc(F)cc5)c4-c4ccncc4)CCN3C2)cc1 [Example 53, 2-(4-Fluorophenyl)-4-[(2S,8aS)-2-[4-(N-methylcarbamoyl)phenyl]-1,2,3,5,6,8a-hexahydroindolizin-7-yl]-3-(pyridin-4-yl)-1H-pyrrole] | 171 to 173
2 | CCNC(=O)c1ccc([C@@H]2C[C@H]3C=C(c4c[nH]c(-c5ccc(F)cc5)c4-c4ccncc4)CCN3C2)cc1 [Example 54, 4-[(2S,8aS)-2-[4-(N-Ethylcarbamoyl)phenyl]-1,2,3,5,6,8a-hexahydroindolizin-7-yl]-2-(4-fluorophenyl)-3-(pyridin-4-yl)-1H-pyrrole] | 178 to 180
3 | O=C(NCc1ccccc1)c1ccc([C@@H]2C[C@H]3C=C(c4c[nH]c(-c5ccc(F)cc5)c4-c4ccncc4)CCN3C2)cc1 [Example 55, 4-[(2S,8aS)-2-[4-(N-Benzylcarbamoyl)phenyl]-1,2,3,5,6,8a-hexahydroindolizin-7-yl]-2-(4-fluorophenyl)-3-(pyridin-4-yl)-1H-pyrrole] | 173 to 175
4 | O=C(NC1CC1)c1ccc([C@@H]2C[C@H]3C=C(c4c[nH]c(-c5ccc(F)cc5)c4-c4ccncc4)CCN3C2)cc1 [Example 56, 4-[(2S,8aS)-2-[4-(N-Cyclopropylcarbamoyl)phenyl]-1,2,3,5,6,8a-hexahydroindolizin-7-yl]-2-(4-fluorophenyl)-3-(pyridin-4-yl)-1H-pyrrole] | 200 to 202
5 | O=C(NCCF)c1ccc([C@@H]2C[C@H]3C=C(c4c[nH]c(-c5ccc(F)cc5)c4-c4ccncc4)CCN3C2)cc1 [Example 57, 4-[(2S,8aS)-2-[4-[N-(2-Fluoroethyl)carbamoyl]phenyl]-1,2,3,5,6,8a-hexahydroindolizin-7-yl]-2-(4-fluorophenyl)-3-(pyridin-4-yl)-1H-pyrrole] | 183 to 185
6 | CCCNC(=O)c1ccc([C@@H]2C[C@H]3C=C(c4c[nH]c(-c5ccc(F)cc5)c4-c4ccncc4)CCN3C2)cc1 [Example 58, 2-(4-Fluorophenyl)-4-[(2S,8aS)-2-[4-(N-propylcarbamoyl)phenyl]-1,2,3,5,6,8a-hexahydroindolizin-7-yl]-3-(pyridin-4-yl)-1H-pyrrole] | 190 to 192
7 | CC(C)NC(=O)c1ccc([C@@H]2C[C@H]3C=C(c4c[nH]c(-c5ccc(F)cc5)c4-c4ccncc4)CCN3C2)cc1 [Example 59, 2-(4-Fluorophenyl)-4-[(2S,8aS)-2-[4-(N-isopropylcarbamoyl)phenyl]-1,2,3,5,6,8a-hexahydroindolizin-7-yl]-3-(pyridin-4-yl)-1H-pyrrole] | 202 to 204
8 | COCCNC(=O)c1ccc([C@@H]2C[C@H]3C=C(c4c[nH]c(-c5ccc(F)cc5)c4-c4ccncc4)CCN3C2)cc1 [Example 61, 2-(4-Fluorophenyl)-4-[(2S,8aS)-2-[4-(N-(2-methoxyethyl)carbamoyl)phenyl]-1,2,3,5,6,8a-hexahydroindolizin-7-yl]-3-(pyridin-4-yl)-1H-pyrrole] | 166 to 168
